From patent US20260091086A1, “POLYPEPTIDE COMBINATIONS AND USES THEREOF” (MEDIMMUNE LIMITED, priority 2024, published 2026)
Numbered stars: 1 amine (or outer) side, 2 acyl side, 3 side chain; on linkers, the order of the positions; unused ones are H or OH. Bridge positions count the residues as written; N and C are the ends. Square brackets hold non-standard residues; d marks the D form. Side chains are listed from the residue outwards. Ends that are not written are not given here. * marks the point of attachment. C18 diacid = O=C(O)CCCCCCCCCCCCCCCCC(=O)*; γGlu = O=C(O)[C@H](CCC(=O)[*:2])N[*:1]; αMeF = C[C@](N)(Cc1ccccc1)C(=O)O

How the values were obtained:
[1] = target: T1, rat amylin receptor (calcitonin receptor plus RAMP3) (Rattus norvegicus, UniProt P32214+Q9JJ73); assay: Target engagement estimate (unbound Cmax / unbound in vitro potency), amylin receptor; conditions: LAA 30 nmol/kg vs DACRA 10 nmol/kg
T1 construct: expressed in transfected cells; host or cells: HEK293
T1 sequence (P32214 25-516): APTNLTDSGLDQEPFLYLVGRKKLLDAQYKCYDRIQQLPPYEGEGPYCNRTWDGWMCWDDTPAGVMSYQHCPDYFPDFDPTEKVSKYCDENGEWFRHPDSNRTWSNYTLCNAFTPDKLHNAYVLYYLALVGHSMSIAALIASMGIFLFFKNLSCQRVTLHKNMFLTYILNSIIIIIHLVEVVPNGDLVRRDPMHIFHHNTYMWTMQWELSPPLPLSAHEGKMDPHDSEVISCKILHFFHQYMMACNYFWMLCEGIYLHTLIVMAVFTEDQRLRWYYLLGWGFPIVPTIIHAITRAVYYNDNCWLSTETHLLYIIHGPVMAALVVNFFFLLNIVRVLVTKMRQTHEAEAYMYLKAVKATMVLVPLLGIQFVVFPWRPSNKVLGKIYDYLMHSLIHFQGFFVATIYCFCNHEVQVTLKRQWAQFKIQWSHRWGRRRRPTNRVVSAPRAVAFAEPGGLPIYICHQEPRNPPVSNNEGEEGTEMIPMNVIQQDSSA
T1 sequence (Q9JJ73 23-147 partner): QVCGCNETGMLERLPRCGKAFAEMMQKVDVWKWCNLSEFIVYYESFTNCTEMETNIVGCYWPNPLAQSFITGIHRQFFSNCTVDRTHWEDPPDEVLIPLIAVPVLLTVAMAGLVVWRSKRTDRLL
Procedure: Target engagement was estimated in the following way for each compound. The maximum concentration (Cmax) after subcutaneous injection was measured in separate rat pharmacokinetic studies and was dose-adjusted to the tested dose levels when appropriate, assuming dose linearity. Plasma protein binding was determined in vitro using 3B Pharmaceutical's Escalate Equilibrium Shift Assay or an in-house Surface Plasmon Resonance (SPR) assay. Peptide in vitro potency was determined via HTRF CAMP accumulation assay using HEK293 cells recombinantly expressing the rat calcitonin receptor or rat amylin receptor (calcitonin receptor plus RAMP3) in saline buffer containing 0.1% bovine serum albumin. The in vitro potencies (IC50s) for amylin and calcitonin were adjusted to unbound values by taking into account the albumin concentration in the assay and fraction unbound data, according to an established method (Wan H and Bergström F (2007), High Throughput Screening of Drug-Protein Binding in Drug Discovery, Journal of Liquid Chromatography & Related Technologies, 30:5, 681-700; doi: 10.1080/10826070701190989). Finally, the target engagement was calculated as the unbound Cmax divided by the unbound IC50, both for amylin and calcitonin. […] Uncertainty of parameter estimates was determined by bootstrapping, sampling single measurements randomly with replacement within each experiment (N=500). […]

DIO rats = assay: Example 7: 28-day LAA and GLP/GIP dual agonist study; type: in vivo, rat
Procedure: Study Design: Male rats were fed a high-fat diet (45% kcal fat-D12451; Research Diets) or chow control matched diet (10% kcal fat-D12450K; […] Control rats were dosed SC with Vehicle. Body weight was monitored daily through-out study and body composition measured by EchoMRI at baseline (week-1) and end of study (week 4). […]

DIO Sprague-Dawley rats [2] = assay: Example 3: 28-day body weight study in DIO rats; type: in vivo, rat; conditions: day 28; LAA 7.5 nmol/kg SC QD
Procedure: Study Design: Male DIO Sprague-Dawley rats were fed a high-fat diet (32.5% kcal fat, D12266B; Research Diets) for approximately 8 weeks prior to study start. Rats were dosed once daily SC for 28 days with Vehicle, GLP-1/GCG (1.5 nmol/kg or 5 nmol/kg), LAA (7.5 nmol/kg) or a combination of GLP-1/GCG and LAA (1.5 and 7.5 nmol/kg, or 5 nmol/kg and 7.5 nmol/kg, respectively) with an n=6/group. Body weight was monitored daily throughout the study. Data reported as mean±standard error of the mean (SEM); data analysis performed using GraphPad Prism-statistical analysis performed using One-way ANOVA with Tukey ad hoc analysis (*p<0.05, **p<0.01, ***0<0.001, ****p<0.0001). In this experiment, the LAA was that of SEQ ID NO: 11, and the GLP-1/GCG dual-agonist was cotadutide.

DIO Sprague-Dawley rats [3] = assay: Example 6 Study 3: 28-day treatment and 14-day wash-out; type: in vivo, rat
Procedure: Study 3 Design: Male DIO Sprague-Dawley rats (Charles River Laboratories) were fed a high-fat diet (32.5% kcal fat, D12266B; […] Rats were dosed SC QD for 28 days with Vehicle (n=16), GLP-1RA at 5 nmol/kg (n=16), LAA (“SARA”) at 7.5 nmol/kg (n=16), or GLP1RA+LAA at 5+7.5 nmol/kg respectively (n=16). Following 28 days of treatment half the animals per group stopped treatment and were allowed to wash-out for 14 days (n=8/group), while the remaining animals per group were euthanized with blood/tissues collected. Body weight and food intake were measured daily, and body composition was measured before study start, on day 27 and then again on day 42. Data reported as mean±standard error of the mean (SEM); data analysis performed using GraphPad Prism. In this experiment, the LAA was that of SEQ ID NO: 11, and the GLP-1RA was semaglutide.

For “K(γE-γE-C18diacid)[CNTATC]ATQRLANFLRHSSNN(αMePhe)GPILPPTEVGSNTY-amide (K([γGlu-γGlu-C18 diacid])CNTATCATQRLANFLRHSSNN[αMeF]GPILPPTEVGSNTY-NH2; disulfide 2-7) [LAA]”, the “amylin receptor engagement, fold more than DACRA” value [1] was roughly 28 fold, the body weight change (DIO rats; day 28, mono-treatment 10 nmol/kg SC QD) was −5.6% and the “change in fat mass (g)” value (DIO rats; end of study (week 4), EchoMRI, FIG. 6C) was “significant decrease in fat mass”. For the same substance, the “change in lean mass (g)” value (DIO rats; end of study, EchoMRI, mono-treatment, FIG. 6D) was “no effect on lean mass”, the “mean change in body weight normalized to Vehicle” value (DIO Sprague-Dawley rats [2]) was −13.7% and the “inhibition of food intake compared to vehicle” value (DIO Sprague-Dawley rats [3]; SC QD 28 days, LAA 7.5, GLP-1RA 5, or 5+7.5 nmol/kg) was roughly −20%. For the same substance, the “BW loss compared to vehicle” value (DIO Sprague-Dawley rats [3]; SC QD 28 days, LAA 7.5, GLP-1RA 5, or 5+7.5 nmol/kg, FIG. 5I) was −9.3%, the lean mass change (DIO Sprague-Dawley rats [3]; baseline to day 27, FIG. 5K) was “preservation of lean mass” and the “fat mass change from baseline” value (DIO Sprague-Dawley rats [3]; baseline to day 27, LAA 7.5, GLP-1RA 5, or 5+7.5 nmol/kg, FIG. 5J) was -17.7 g.
